{"source": "patent US4730042A", "about": "“Compounds 1 or 3-hydroxy-4-benzyl-6-methyl-7-(4-isopropylamino-butoxy)-1,3-dihydro[3,4- C]pyridine and 2-methyl-3-(4-isopropyl-aminobutoxy)-4-(1'-morphilinomethyl)-5-hydroxyme thyl-6-benzyl pyridine, useful for treating cardiac arrhythmias” (priority 1985, dated 1988)", "key": {"[1]": {"system": "aconitine-induced arrhythmia", "assay": "Antiarrhythmic effect on the aconitine-induced arrhythmia in anesthetized rats", "type": "in vivo, male Sprague-Dawley rats", "settings": "for ED50: Rattus norvegicus, iv, read-out: Antiarrhythmic effect ED 50; for Antiarrhythmic effect, maximum effect / maximum effect compared with barucainid, in words: rat; for Antiarrhythmic effect, maximum effect: i.v., maximum relative increase in the arrhythmogenic aconitine dose; for maximum effect compared with barucainid, in words: versus barucainid", "method": "The novel compounds have a powerful antiarrhythmic action and are useful for the therapy of cardiac arrhythmias. The pharmacological investigations to determine the antiarryhythmic action were carried out using the antiarrhythmic barucainid as a comparison.\n(§1) The test animals used were male Sprague-Dawley rats weighing 180-300 g. Anesthesia was effected with 100 mg/kg of thiobutabarbital, administered intraperitoneally. To induce arrhythmias, aconitine was infused at a dosage rate of 5 μg per kg per min. The test substances were administered intravenously, directly before the beginning of the aconitine infusion. The parameter measured is the amount of aconitine which leads to the first signs of arrhythmias (disappearance of P, ventricular extrasystoles and tachycardia) in the ECG of the animals. In the case of untreated animals, the arrhythmogenic aconitine dose was 16.5±0.34 μg/kg (n=120). The dose which causes a 50% increase was determined from the linear relationship between log dose (mg/kg) of the test substances and the relative increase in the arrhythmogenic aconitine dose (Δ%).\nThe maximum effect achieved (Δ%) is evaluated as a further criterion of the antiarrhythmic efficacy."}, "[2]": {"system": "ECG (ST depression, disappearance of P, extrasystoles)", "assay": "Toxic changes in the ECG and therapeutic index in the rat", "type": "in vivo", "settings": "i.v., toxic effect in the ECG (occurrence of extrasystoles)", "method": "as §1\n(§2) The dose of test substance which causes toxic changes in the ECG (ST depression, disappearance of P, extrasystoles) was also determined. The quotient of the ECG-toxic dose and the antiarrhythmic ED 50 was evaluated as a measure of the therapeutic index of the novel compounds."}, "[3]": {"assay": "Toxic changes in the ECG and therapeutic index in the rat", "type": "in vivo", "settings": "in vivo, iv, quotient of ECG-toxic dose and antiarrhythmic ED 50", "method": "as §1, §2"}}, "data": [{"smiles": "Cc1nc(Cc2ccccc2)c2c(c1OCCCCNC(C)C)COC2", "note": "[Barucainid, reference compound]", "values": [{"measurement": "ED50", "setting": "[1]", "value": 1.95, "unit": "mg/kg"}, {"measurement": "Antiarrhythmic effect, maximum effect", "setting": "[1]", "value": "105 Δ %"}, {"measurement": "ECG-toxic dose", "setting": "[2]", "value": 10.0, "unit": "mg/kg"}, {"measurement": "selectivity ratio", "setting": "[3]", "value": 5.13}]}, {"smiles": "Cc1nc(Cc2ccccc2)c(CO)c(CN2CCOCC2)c1OCCCCNC(C)C.Cl.Cl.Cl", "note": "[Example 1, 2-methyl-3-(4-isopropylaminobutoxy)-4-(1'-morpholinomethyl)-5-hydroxymethyl-6-benzylpyridine trihydrochloride]", "values": [{"measurement": "ED50", "setting": "[1]", "value": 0.19, "unit": "mg/kg"}, {"measurement": "Antiarrhythmic effect, maximum effect", "setting": "[1]", "value": "111 Δ %"}, {"measurement": "ECG-toxic dose", "setting": "[2]", "value": 2.15, "unit": "mg/kg"}, {"measurement": "selectivity ratio", "setting": "[3]", "value": 11.3}]}, {"smiles": "Cc1nc(Cc2ccccc2)c2c(c1OCCCCNC(C)C)C(O)OC2.Cl.Cl", "note": "(centres unmarked) [Example 2, 1-hydroxy-4-benzyl-6-methyl-7-(4-isopropylaminobutoxy)-1,3-dihydrofuro[3,4-C]pyridine dihydrochloride]", "values": [{"measurement": "ED50", "setting": "[1]", "value": 0.468, "unit": "mg/kg"}, {"measurement": "Antiarrhythmic effect, maximum effect", "setting": "[1]", "value": "239 Δ %"}, {"measurement": "maximum effect compared with barucainid, in words", "setting": "[1]", "value": "superior to barucainid"}, {"measurement": "ECG-toxic dose", "setting": "[2]", "value": "> 4.64", "unit": "mg/kg"}, {"measurement": "selectivity ratio", "setting": "[3]", "value": "> 9.9"}]}, {"smiles": "Cc1nc(Cc2ccccc2)c2c(c1OCCCCNC(C)C)COC2O.Cl.Cl", "note": "(centres unmarked) [Example 3, 3-hydroxy-4-benzyl-6-methyl-7-(4-isopropylaminobutoxy)-1,3-dihydrofuro[3,4-C]pyridine dihydrochloride]", "values": [{"measurement": "ED50", "setting": "[1]", "value": 0.695, "unit": "mg/kg"}, {"measurement": "Antiarrhythmic effect, maximum effect", "setting": "[1]", "value": "276 Δ %"}, {"measurement": "maximum effect compared with barucainid, in words", "setting": "[1]", "value": "superior to barucainid"}, {"measurement": "ECG-toxic dose", "setting": "[2]", "value": 10, "unit": "mg/kg"}, {"measurement": "selectivity ratio", "setting": "[3]", "value": 14.4}]}, {"smiles": "Cc1nc(Cc2ccc(O)cc2)c2c(c1OCCCCNC(C)C)COC2", "note": "[Example 4, 4-(p-hydroxybenzyl)-6-methyl-7-(4-isopropylaminobutoxy)-1,3-dihydrofuro[3,4-C]pyridine]", "values": [{"measurement": "ED50", "setting": "[1]", "value": 2.69, "unit": "mg/kg"}, {"measurement": "Antiarrhythmic effect, maximum effect", "setting": "[1]", "value": "263 Δ %"}, {"measurement": "maximum effect compared with barucainid, in words", "setting": "[1]", "value": "superior to barucainid"}, {"measurement": "ECG-toxic dose", "setting": "[2]", "value": 46.4, "unit": "mg/kg"}, {"measurement": "selectivity ratio", "setting": "[3]", "value": 17.3}]}]}
